Data reported in ChEMBL document CHEMBL4152208, “Synthesis and structure-activity relationships of quinolinone and quinoline-based P2X7 receptor antagonists and their anti-sphere formation activities in glioblastoma cells” (Eur J Med Chem, 2018).
Activity calls are given as the source filed them. The rule behind the calls is not given here.

Legend:
Type in all cases: cell-based
[1] = target: T1, P2X purinoceptor 7 (Homo sapiens) (UniProt Q99572); test: Antagonist activity at human P2X7 receptor expressed in HEK293 cells assessed as inhibition of BzATP-induced EtBr uptake at 10 uM after 2 hrs by fluorescence assay relative to control
T1 sequence (whole entry): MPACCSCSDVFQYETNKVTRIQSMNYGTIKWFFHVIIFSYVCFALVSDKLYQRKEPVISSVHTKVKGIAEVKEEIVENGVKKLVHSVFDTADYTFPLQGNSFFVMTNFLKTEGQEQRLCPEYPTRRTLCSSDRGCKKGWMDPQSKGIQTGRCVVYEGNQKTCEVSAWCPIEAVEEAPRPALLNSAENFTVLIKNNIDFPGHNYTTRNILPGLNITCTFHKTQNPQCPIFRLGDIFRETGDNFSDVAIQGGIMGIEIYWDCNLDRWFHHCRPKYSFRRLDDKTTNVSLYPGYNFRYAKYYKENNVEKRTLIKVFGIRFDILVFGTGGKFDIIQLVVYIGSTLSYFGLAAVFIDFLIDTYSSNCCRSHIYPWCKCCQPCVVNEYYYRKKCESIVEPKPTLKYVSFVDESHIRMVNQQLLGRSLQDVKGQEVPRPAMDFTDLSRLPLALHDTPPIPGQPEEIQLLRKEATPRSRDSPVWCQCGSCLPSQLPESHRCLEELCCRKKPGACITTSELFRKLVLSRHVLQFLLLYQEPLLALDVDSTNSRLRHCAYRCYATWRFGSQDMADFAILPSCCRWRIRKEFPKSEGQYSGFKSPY

[2] = target: T1, P2X purinoceptor 7 (Homo sapiens); test: Antagonist activity at human P2X7 receptor expressed in HEK293 cells assessed as inhibition of BzATP-induced EtBr uptake at 1 uM after 2 hrs by fluorescence assay relative to control
[3] = target: T2, P2X purinoceptor 7 (Homo sapiens, UniProt Q99572); test: Antagonist activity at human P2X7 receptor expressed in HEK293 cells assessed as inhibition of BzATP-induced EtBr uptake after 2 hrs by fluorescence assay relative to control
T2 sequence (Q99572 whole entry): T1 sequence (whole entry)

[4] = target: T2, P2X purinoceptor 7; test: Antagonist activity at P2X7 in LPS/IFN gamma differentiated human THP-1 cells assessed as inhibition of BzATP-induced IL-1beta release preincubated for 30 mins followed by BzATP stimulation for 30 mins by ELISA
[5] = Cytotoxicity against HEK293 cells expressing human P2X7 receptor assessed as cell survival at 10 uM by MTT assay relative to control; conditions: read-out: Survival
[6] = target: T1, P2X purinoceptor 7 (Homo sapiens); test: Antagonist activity at P2X7 in LPS/IFN gamma differentiated human THP-1 cells assessed as inhibition of BzATP-induced IL-1beta release at 10 uM preincubated for 30 mins followed by BzATP stimulation for 30 mins by ELISA

Structure (SMILES): COc1ccc(Cn2c(=O)c(C(=O)NCCCc3ccccc3)cc3c(N)cccc32)cc1
- inhibition [1]: inactive

Structure (SMILES): COC(=O)c1cc2c(NC(=O)C3CCCCC3)cccc2n(Cc2ccc(OC)cc2)c1=O
- inhibition [1]: 88%
- inhibition [2]: 67%
- IC50 [3]: 810 nM

Structure (SMILES): COC(=O)c1cc2c(NC(=O)C34CC5CC(CC(C5)C3)C4)cccc2n(Cc2ccc(Br)cc2)c1=O
- inhibition [1]: 80%
- inhibition [2]: 65%
- IC50 [3]: 810 nM

Structure (SMILES): COc1ccc(Cn2c(=O)c(C(=O)NCCc3ccc(C)cc3)cc3c(NC(=O)CCc4ccccc4)cccc32)cc1
- inhibition [1]: inactive

Structure (SMILES): COc1ccc(Cn2c(=O)c(C(=O)NCCc3ccccc3)cc3c(N)cccc32)cc1
- inhibition [1]: inactive

Structure (SMILES): COc1ccc(Cn2c(=O)c(C(=O)NCCCc3ccccc3)cc3c(NC(=O)Cc4ccccc4)cccc32)cc1
- inhibition [1]: inactive

Structure (SMILES): COC(=O)c1cc2c(NC(=O)C34CC5CC(CC(C5)C3)C4)cccc2n(Cc2cccc(OC)c2)c1=O
- inhibition [1]: 55%
- inhibition [2]: 35%

Structure (SMILES): CCc1ccc(CCNC(=O)c2cc3c(NC(=O)COc4ccc(Cl)cc4)cccc3n(Cc3ccc(OC)cc3)c2=O)cc1
- inhibition [1]: inactive

Structure (SMILES): COc1ccc(Cn2c(=O)c(C(=O)OC(C)C)cc3c(NC(=O)C45CC6CC(CC(C6)C4)C5)cccc32)cc1
- inhibition [1]: 77%
- inhibition [2]: 47%

Structure (SMILES): COc1ccc(Cn2c(=O)c(C(=O)NCCCc3ccccc3)cc3c(NC(=O)CCc4ccccc4)cccc32)cc1
- inhibition [1]: inactive

Structure (SMILES): COC(=O)c1cc2c(NC(=O)CC3CCCCC3)cccc2n(Cc2ccc(OC)cc2)c1=O
- inhibition [1]: 86%
- inhibition [2]: 63%
- IC50 [3]: 875 nM

Structure (SMILES): COC(=O)c1cc2c(NC(=O)c3ccccc3)cccc2n(Cc2ccc(OC)cc2)c1=O
- inhibition [1]: inactive

Structure (SMILES): COc1ccc(Cn2c(=O)c(C(=O)NCCc3ccccc3)cc3c(NC(=O)CCc4ccccc4)cccc32)cc1
- inhibition [1]: inactive

Structure (SMILES): COc1ccc(Cn2c(=O)c(C(=O)NCCc3ccc(Cl)cc3)cc3c(NC(=O)Cc4ccccc4)cccc32)cc1
- inhibition [1]: inactive

Structure (SMILES): O=C(CC12CC3CC(CC(C3)C1)C2)Nc1cccc2nc(-c3ccc([N+](=O)[O-])cc3)ccc12
- inhibition [1]: 94%
- inhibition [2]: 79%
- IC50 [3]: 73 nM
- IC50 [4]: 113 nM
- viability at 10 µM [5]: 93%

Structure (SMILES): COc1ccc(Cn2c(=O)c(C(=O)NCCc3ccc(C)cc3)cc3c(NC(=O)CCC4CCCC4)cccc32)cc1
- inhibition [1]: inactive

Structure (SMILES): CNC(=O)c1cc2c(NC(=O)C34CC5CC(CC(C5)C3)C4)cccc2n(Cc2ccc(OC)cc2)c1=O
- inhibition [1]: 42%
- inhibition [2]: 6%

Structure (SMILES): COC(=O)c1cc2c(NC(=O)C34CC5CC(CC(C5)C3)C4)cccc2n(Cc2ccc(Cl)cc2)c1=O
- inhibition [1]: 88%
- inhibition [2]: 78%
- IC50 [3]: 723 nM

Structure (SMILES): COC(=O)c1cc2c(NC(=O)CCc3ccccc3)cccc2n(Cc2ccc(OC)cc2)c1=O
- inhibition [1]: 56%
- inhibition [2]: 36%

Structure (SMILES): COc1ccc(Cn2c(=O)c(C(=O)NCCc3ccc(C)cc3)cc3c(NC(=O)COc4ccc(Cl)cc4)cccc32)cc1
- inhibition [1]: inactive

Structure (SMILES): O=C(CC12CC3CC(CC(C3)C1)C2)Nc1cccc2nc(-c3ccccc3O)ccc12
- inhibition [1]: 69%
- inhibition [2]: 41%

Structure (SMILES): COC(=O)c1cc2c(N)cccc2n(Cc2ccc(OC)cc2)c1=O
- inhibition [1]: inactive

Structure (SMILES): COC(=O)c1cc2c(NC(=O)CC34CC5CC(CC(C5)C3)C4)cccc2nc1Cl
- inhibition [1]: 43%
- inhibition [2]: 27%

Structure (SMILES): COc1ccc(Cn2c(=O)c(C(=O)NCCc3ccc(Cl)cc3)cc3c(NC(=O)COc4cccc(Cl)c4)cccc32)cc1
- inhibition [1]: inactive

Structure (SMILES): COc1ccc(Cn2c(=O)c(C(=O)NCCc3ccc(C)cc3)cc3c(NC(=O)Cc4ccccc4)cccc32)cc1
- inhibition [1]: 13%

Structure (SMILES): COC(=O)c1cc2c(NC(=O)C34CC5CC(CC(C5)C3)C4)cccc2n(Cc2ccccc2)c1=O
- inhibition [1]: inactive

Structure (SMILES): COC(=O)c1cc2c(NC(=O)CCC3CCCCC3)cccc2n(Cc2ccc(OC)cc2)c1=O
- inhibition [1]: 57%
- inhibition [2]: 20%

Structure (SMILES): COc1ccc(Cn2c(=O)c(C(=O)NCCc3ccc(C)cc3)cc3c(N)cccc32)cc1
- inhibition [1]: 4%

Structure (SMILES): COc1ccc(CC(=O)Nc2cccc3c2cc(C(=O)NCCc2ccccc2)c(=O)n3Cc2ccc(OC)cc2)cc1
- inhibition [1]: 8%

Structure (SMILES): COc1ccc(Cn2c(=O)c(C(=O)NCCc3ccc(C)cc3)cc3c(NC(=O)COc4cccc(Cl)c4)cccc32)cc1
- inhibition [1]: inactive

Structure (SMILES): COc1ccc(CC(=O)Nc2cccc3c2cc(C(=O)NCCc2ccc(C)cc2)c(=O)n3Cc2ccc(OC)cc2)cc1
- inhibition [1]: inactive

Structure (SMILES): CCCC(=O)Nc1cccc2c1cc(C(=O)NCCc1ccccc1)c(=O)n2Cc1ccc(OC)cc1
- inhibition [1]: inactive

Structure (SMILES): O=C(CC12CC3CC(CC(C3)C1)C2)Nc1cccc2nc(-c3ccccc3)ccc12
- inhibition [1]: 86%
- inhibition [2]: 78%
- IC50 [3]: 447 nM
- IC50 [4]: 434 nM
- viability at 10 µM [5]: 98%

Structure (SMILES): COC(=O)c1cc2c(NC(=O)C34CC5CC(CC(C5)C3)C4)cccc2n(Cc2ccc(C)cc2)c1=O
- inhibition [1]: 45%
- inhibition [2]: 30%

Structure (SMILES): COc1ccc(Cn2c(=O)c(C(=O)O)cc3c(NC(=O)C45CC6CC(CC(C6)C4)C5)cccc32)cc1
- inhibition [1]: 41%
- inhibition [2]: 2%

Structure (SMILES): CCCC(=O)Nc1cccc2c1cc(C(=O)NCCc1ccc(OC)cc1)c(=O)n2Cc1ccc(OC)cc1
- inhibition [1]: inactive

Structure (SMILES): COc1ccc(Cn2c(=O)c(C(=O)O)cc3c(N)cccc32)cc1
- inhibition [1]: inactive

Structure (SMILES): COC(=O)c1cc2c(NC(=O)CC34CC5CC(CC(C5)C3)C4)cccc2n(Cc2ccc(OC)cc2)c1=O
- inhibition [1]: 76%
- inhibition [2]: 65%
- IC50 [3]: 861 nM

Structure (SMILES): COC(=O)c1cc2c(NC(=O)C34CC5CC(CC(C5)C3)C4)cccc2n(Cc2ccc(C#N)cc2)c1=O
- inhibition [1]: inactive

Structure (SMILES): COc1ccc(Cn2c(=O)c(C(=O)NCCc3ccc4c(c3)OCO4)cc3c(N)cccc32)cc1
- inhibition [1]: inactive

Structure (SMILES): O=C(CC12CC3CC(CC(C3)C1)C2)Nc1cccc2nc(-c3ccc(Cl)cc3)ccc12
- inhibition [1]: 90%
- inhibition [2]: 89%
- IC50 [3]: 123 nM
- IC50 [4]: 178 nM
- viability at 10 µM [5]: 98%

Structure (SMILES): COc1ccc(Cn2c(=O)c(C(=O)NCCc3ccc4c(c3)OCO4)cc3c(NC(=O)Cc4ccc(Cl)cc4)cccc32)cc1
- inhibition [1]: inactive

Structure (SMILES): COc1ccc(Cn2c(=O)c(C(=O)NCCc3ccc(Cl)cc3)cc3c(N)cccc32)cc1
- inhibition [1]: inactive

Structure (SMILES): COc1ccc(CCNC(=O)c2cc3c(NC(=O)COc4ccc(Cl)cc4)cccc3n(Cc3ccc(OC)cc3)c2=O)cc1
- inhibition [1]: inactive

Structure (SMILES): O=C(Nc1cccc2nc(Cl)ccc12)C12CC3CC(CC(C3)C1)C2
- inhibition [1]: 51%
- inhibition [2]: 11%

Structure (SMILES): COc1ccc(Cn2c(=O)c(C(=O)NCCCc3ccccc3)cc3c(NC(=O)Cc4ccc(Cl)cc4)cccc32)cc1
- inhibition [1]: inactive

Structure (SMILES): COC(=O)c1cc2c(NC(=O)C34CC5CC(CC(C5)C3)C4)cccc2n(Cc2ccc(OC(F)(F)F)cc2)c1=O
- inhibition [1]: 68%
- inhibition [2]: 48%

Structure (SMILES): COC(=O)c1cc2c(NC(=O)Cc3ccccc3)cccc2n(Cc2ccc(OC)cc2)c1=O
- inhibition [1]: 43%
- inhibition [2]: 24%

Structure (SMILES): CN([C@@H](Cc1ccc(OS(=O)(=O)c2cccc3cnccc23)cc1)C(=O)N1CCN(c2ccccc2)CC1)S(=O)(=O)c1cccc2cnccc12
- inhibition [2]: 79%
- inhibition [6]: 96%
- viability at 10 µM [5]: 93%

Structure (SMILES): COc1ccc(Cn2c(=O)c(C(=O)NCCc3ccc(O)c(OC)c3)cc3c(N)cccc32)cc1
- inhibition [1]: 5%

Structure (SMILES): O=C(CC12CC3CC(CC(C3)C1)C2)Nc1cccc2nc(-c3cccc(O)c3)ccc12
- inhibition [1]: 66%
- inhibition [2]: 36%

Structure (SMILES): COC(=O)c1cc2c(NC(=O)C34CC5CC(CC(C5)C3)C4)cccc2nc1Cl
- inhibition [1]: 21%
- inhibition [2]: inactive

Structure (SMILES): CCc1ccc(Cn2c(=O)c(C(=O)OC)cc3c(NC(=O)C45CC6CC(CC(C6)C4)C5)cccc32)cc1
- inhibition [1]: 38%
- inhibition [2]: 28%

Structure (SMILES): COc1ccc(Cn2c(=O)ccc3c(NC(=O)C45CC6CC(CC(C6)C4)C5)cccc32)cc1
- inhibition [1]: 43%
- inhibition [2]: 29%

Structure (SMILES): COc1ccc(CCNC(=O)c2cc3c(NC(=O)CCc4ccccc4)cccc3n(Cc3ccc(OC)cc3)c2=O)cc1
- inhibition [1]: 7%

Structure (SMILES): O=C(CC1CCCCC1)Nc1cccc2nc(Cl)ccc12
- inhibition [1]: 95%
- inhibition [2]: 90%
- IC50 [3]: 385 nM
- IC50 [4]: 335 nM
- viability at 10 µM [5]: 92%

Structure (SMILES): CCc1ccc(CCNC(=O)c2cc3c(N)cccc3n(Cc3ccc(OC)cc3)c2=O)cc1
- inhibition [1]: inactive

Structure (SMILES): COC(=O)c1cc2c(NC(=O)CCC3CCCC3)cccc2n(Cc2ccc(OC)cc2)c1=O
- inhibition [1]: 45%
- inhibition [2]: 15%

Structure (SMILES): COc1ccc(Cn2c(=O)c(C(=O)N(C)C)cc3c(NC(=O)C45CC6CC(CC(C6)C4)C5)cccc32)cc1
- inhibition [1]: 54%
- inhibition [2]: 14%
